# From US20040096356A1, “Assay device for determining analytes in a liquid dairy product” (priority 1997, published 2004)
# Assays:
# [1] = target: T1, receptor BlaR-CTD (Bacillus licheniformis, UniProt P12287); assay: Five minutes test: strip test for β-lactam antibiotics in milk using BlaR-CTD; assay type: binding; conditions: in 5 minutes; positive when first band is less intense than second band
# T1 construct: the receptor BlaR-CTD is the carboxy-terminal region of BlaR
# Source text: (§1) According to a preferred embodiment of the invention an identifier is used which comprises a receptor sensitive to antibiotics having a β-lactam ring, which receptor is obtained from Bacillus licheniformis, such as the receptor BlaR or the receptor BlaR-CTD. The isolation and the peptide sequence of the protein BlaR are described in Y. Zhu et al., J. Bacteriol., 1137-1141 (1990); the receptor BlaR-CTD is the carboxy-terminal region of BlaR, whose isolation and peptide sequence are described in B. Joris et al., FEMS Microbiology Letters, 107-114 (1990).
# (§2) This example illustrates the detection in milk of antibiotics having a β-lactam ring which are monitored by the health authorities. The test described in this example uses the receptor BlaR-CTD coupled with gold beads, which serve as labelling agents, and uses a support which is in the form of an assay device comprising a solid support on which membranes are fixed.
# (§3) 3.79 ml of a solution of recognition agent BlaR-CTD having a concentration of 6.6 mg/ml are taken up in a sodium phosphate buffer, 20 mM pH 7. To this solution of BlaR-CTD are then added 41.71 ml of bicarbonate buffer (0.1 M sodium bicarbonate, pH 9) and 2 ml of a solution of N-hydroxysuccinimide 6-(biotinamido)caproic ester containing 2.23 mg/ml likewise of bicarbonate buffer. This solution is stirred gently on a LABINCO stirrer for tubes on a rotary axis (available from VEL, Belgium) at a rate of 2 revolutions/minute for 2 hours at ambient temperature and away from light. 2.5 ml of a solution of Tris buffer, 1 M pH 8 are incubated with the reaction mixture under the same conditions for 30 minutes. The solution thus obtained is dialysed against HNM buffer (Hepes 100 mM, pH 8, NaCl 100 mM, MgCl2 50 mM) for 24 hours. In this way a biotinylated BlaR-CTD solution is obtained which is diluted in HNM-BSA buffer (Hepes 500 mM, pH 8, NaCl 500 mM, MgCl2 250 mM, BSA 10 mg/ml) to a concentration of 250 μg of biotinylated BlaR-CTD per ml of buffer. This solution is stored at −20° C.
# (§4) The biotinylated BlaR-CTD solution prepared in Example 3.1.1 is diluted 114.7 times with the HNM-BSA buffer (Hepes 500 mM, pH 8, NaCl 500 mM, MgCl2 250 mM, BSA 10 mg/ml). At room temperature, 22.5 parts by volume of this dilute biotinylated BlaR-CTD solution, 7.5 parts by volume of HNM-BSA buffer, 9.27 parts by volume of the gold particle suspension used to label the biotinylated BlaR-CTD and 6 parts by volume of reference gold particle suspension are mixed (see Example 3.1.4 below).
# (§5) The first capture substance makes it possible to fix the BlaR-CTD coupled with the gold beads present in excess relative to the quantity of antibiotic present in the sample.
# (§6) Assay devices containing membranes (2), (3) and (4) are used, assembled in accordance with the procedure described in Example 1.1. The membrane (3) of these devices carries on the proximal side the capture substance described in Example 32.1. and on the distal side the capture substance described in Example 3.2.2. The capture substances were deposited in accordance with the procedure described in Example 1.2.
# Six samples of fresh milk are prepared, containing 0; 2; 4; 6; 8 and 10 ppb, repsectively, of cloxacillin. Each of these solutions is then analysed as follows.
# (§7) An aliquot is taken of 200 μl of milk sample and 45.27 μl of solution prepared in Example 3.1.3, and is placed in a glass flask. This mixture is incubated at 47° C. for 3 minutes. An assay device is taken and is placed vertically in the glass flask such that the first end of the assay device is in contact with the mixture in such a way that the second end rests on the wall of the glass flask. The mixture is allowed to migrate over the assay device while the assembly is incubated at 47° C. for 2 minutes.
# (§8) An intensity value ranging from 0 to 10 is awarded to the bands detected, the value 10 being given to the most intense band and the value 0 being given to the least intense band. On this scale, a value of 6 is awarded to the reference band. […]
# [2] = target: T1, receptor BlaR-CTD; assay: 9-minute test: strip test for β-lactam antibiotics in milk using BlaR-CTD; assay type: binding; conditions: in 9 minutes; positive when first band is less intense than second band
# Source text: as §1, §2, §3, §4, §5, §6
# Six samples of fresh milk are prepared, containing 0; 4; 6; 8; 10 and 12 ppb, respectively, of cephapirin. Each of these solutions is then analysed as follows.
# as §7, with “for 7” for “for 3”
# as §8
# T1 sequence (P12287 340-601): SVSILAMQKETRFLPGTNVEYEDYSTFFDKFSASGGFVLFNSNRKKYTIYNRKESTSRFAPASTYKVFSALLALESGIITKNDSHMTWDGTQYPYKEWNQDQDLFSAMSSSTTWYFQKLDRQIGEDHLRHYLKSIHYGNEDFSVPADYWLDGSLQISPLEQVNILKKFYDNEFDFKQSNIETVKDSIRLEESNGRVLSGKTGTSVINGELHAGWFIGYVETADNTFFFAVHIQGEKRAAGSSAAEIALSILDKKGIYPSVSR
smiles,measurement,setting,value
"CC1(C)S[C@@H]2[C@H](NC(=O)Cc3ccccc3)C(=O)N2[C@H]1C(=O)O [Penicillin G, penicillin G]",lowest concentration detected in a milk sample,[1],3 ppb
same,lowest concentration detected in a milk sample,[2],3 ppb
